Assay results from patent US12630547B2, “RAS protein degraders, pharmaceutical compositions thereof, and their therapeutic applications” (BioTheryX, Inc., priority 2019, dated 2026).

How the values were obtained:
Assay type in all cases: cell-based
MOLM-13 cells = assay: Cell viability assay (CELLTITER-GLO), MOLM-13 cells; details: Homo sapiens, MOLM-13, 72 h; Table 2; compound at 10 μM, 3 days; read-out: Effect on MOLM-13 cell viability (% DMSO)
How it was run: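 Viability, as % of DMSO control, was read by CellTiter-Glo luminescence after a 3-day compound exposure (single dose of 10 μM or 1 μM) at 37 °C. Cells plated at 4,000/well in RPMI 1640 with 10% FBS. Results reported as categories A <10%, B 10–<25%, C 25–<50%, D ≥50%.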

H23 cells = assay: Cell viability assay (CELLTITER-GLO), H23 cells; details: Table 4; 3 days
How it was run: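 Luminescent CellTiter-Glo readout after 3-day compound treatment (37° C, 5% CO2) of H23 cells plated at 4,000 cells/well in RPMI 1640 plus 10% FBS, DMSO as control. IC50 values given as categorical ranges.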

H358 cells = assay: Cell viability assay (CELLTITER-GLO), H358 cells; details: Table 4; 3 days
How it was run: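 Luminescent ATP read-out (CellTiter-Glo) after 3-day incubation at 37 °C of H358 cells plated at 4,000/well in RPMI 1640 with 10% FBS. Values are either IC50 bins (A ≤1 μM through D >10 μM) or % of DMSO viability at 10 μM or 1 μM, bins A <10% through D ≥50%.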

Inhibition of H358 cells, IC50 (class) (H358 cells)	Compound	viability at 10 µM (MOLM-13 cells)	Inhibition of H23 cells, IC50 (class) (H23 cells)
A′	C=C(Cl)C(=O)N1CCN(c2nc(=O)n(-c3ccccc3C(C)C)c3nc(-c4c(F)cccc4OCCCCCCCN4CCC(c5cc(F)cc6c5CN(C5CCC(=O)NC5=O)C6=O)CC4)c(F)cc23)[C@@H](C)C1 (stereo partly drawn) [Compound 100, 3-(4-(1-(7-(2-(4-((S)-4-(2-Chloroacryloyl)-2-methylpiperazin-1-yl)-6-fluoro-1-(2-isopropylphenyl)-2-oxo-1,2-dihydropyrido[2,3-d]pyrimidin-7-yl)-3-fluorophenoxy)heptyl)piperidin-4-yl)-6-fluoro-1-oxoisoindolin-2-yl)piperidine-2,6-dione]	< 10%	A′
A′	C=C(Cl)C(=O)N1CCN(c2ncnc3c(F)c(-c4c(F)cccc4OCCOCc4ccc(COCCN5CCC(c6cc(F)cc7c6CN(C6CCC(=O)NC6=O)C7=O)CC5)cc4)c(Cl)cc23)CC1 (stereo not drawn) [Compound 101, 3-(4-(1-(2-((4-((2-(2-(6-Chloro-4-(4-(2-chloroacryloyl)piperazin-1-yl)-8-fluoroquinazolin-7-yl)-3-fluorophenoxy)ethoxy)methyl)benzyl)oxy)ethyl)piperidin-4-yl)-6-fluoro-1-oxoisoindolin-2-yl)piperidine-2,6-dione]	< 10%	A′
A′	C=C(Cl)C(=O)N1CCN(c2ncnc3c(F)c(-c4c(F)cccc4OCCCCCCCN4CCC(c5cc(F)cc6c5CN(C5CCC(=O)NC5=O)C6=O)CC4)c(Cl)cc23)C[C@H]1CC#N (stereo partly drawn) [Compound 102, 2-((2R)-4-(6-Chloro-7-(2-((7-(4-(2-(2,6-dioxopiperidin-3-yl)-6-fluoro-1-oxoisoindolin-4-yl)piperidin-1-yl)heptyl)oxy)-6-fluorophenyl)-8-fluoroquinazolin-4-yl)-1-(2-chloroacryloyl)-piperazin-2-yl)acetonitrile]	< 10%	A′
A′	C=C(Cl)C(=O)N1CCN(c2ncnc3c(F)c(-c4c(F)cccc4OCCCCCN4CCC(c5cc(F)cc6c5CN(C5CCC(=O)NC5=O)C6=O)CC4)c(Cl)cc23)CC1 (stereo not drawn) [Compound 103, 3-(4-(1-(5-(2-(6-Chloro-4-(4-(2-chloroacryloyl)piperazin-1-yl)-8-fluoroquinazolin-7-yl)-3-fluorophenoxy)pentyl)piperidin-4-yl)-6-fluoro-1-oxoisoindolin-2-yl)piperidine-2,6-dione]	< 10%	A′
B′	C=C(Cl)C(=O)N1C[C@@H]2C(=O)N(C)c3cnc4c(F)c(-c5c(F)cccc5OCCCCCCCN5CCC(c6cc(F)cc7c6CN(C6CCC(=O)NC6=O)C7=O)CC5)c(Cl)cc4c3N2C[C@H]1C (stereo partly drawn) [Compound 104, 3-(4-(1-(7-(2-((2R,4aR)-11-Chloro-3-(2-chloroacryloyl)-9-fluoro-2,6-dimethyl-5-oxo-2,3,4,4a,5,6-hexahydro-1H-pyrazino[1′,2′:4,5]pyrazino[2,3-c]quinolin-10-yl)-3-fluorophenoxy)-heptyl)piperidin-4-yl)-6-fluoro-1-oxoisoindolin-2-yl)piperidine-2,6-dione]	< 10%	B′
A′	C=C(Cl)C(=O)N1CCN(c2ncnc3cc(-c4c(F)cccc4OCCCCCCCN4CCC(c5cccc6c5CN(C5CCC(=O)NC5=O)C6=O)CC4)c(Cl)cc23)CC1 (stereo not drawn) [Compound 105, 3-(4-(1-(7-(2-(6-Chloro-4-(4-(2-chloroacryloyl)piperazin-1-yl)quinazolin-7-yl)-3-fluorophenoxy)heptyl)piperidin-4-yl)-1-oxoisoindolin-2-yl)piperidine-2,6-dione]	< 10%	A′
A′	C=C(Cl)C(=O)N1CCN(c2ncnc3c(F)c(-c4c(F)cccc4OCCCCCCCN4CCC(c5cc6c(cc5F)C(=O)N(C5CCC(=O)NC5=O)C6)CC4)c(Cl)cc23)CC1 (stereo not drawn) [Compound 107, 3-(5-(1-(7-(2-(6-Chloro-4-(4-(2-chloroacryloyl)piperazin-1-yl)-8-fluoroquinazolin-7-yl)-3-fluorophenoxy)heptyl)piperidin-4-yl)-6-fluoro-1-oxoisoindolin-2-yl)piperidine-2,6-dione]	< 10%	A′
A′	C=C(Cl)C(=O)N1CCN(c2nc(OC[C@@H]3CCCN3C)nc3c(F)c(-c4c(F)cccc4OCCCCCCCN4CCC(c5cc(F)cc6c5CN(C5CCC(=O)NC5=O)C6=O)CC4)c(Cl)cc23)CC1 (stereo partly drawn) [Compound 108, 3-(4-(1-(7-(2-(6-Chloro-4-(4-(2-chloroacryloyl)piperazin-1-yl)-8-fluoro-2-(((S)-1-methylpyrrolidin-2-yl)methoxy)quinazolin-7-yl)-3-fluorophenoxy)heptyl)piperidin-4-yl)-6-fluoro-1-oxoisoindolin-2-yl)piperidine-2,6-dione]	< 10%	A′
B′	CCC(=O)N1CCN(c2ncnc3c(F)c(-c4c(F)cccc4OCCOCc4ccc(COCCN5CCC(c6cc(F)cc7c6CN(C6CCC(=O)NC6=O)C7=O)CC5)cc4)c(Cl)cc23)CC1 (stereo not drawn) [Compound 109, 3-(4-(1-(2-((4-((2-(2-(6-Chloro-8-fluoro-4-(4-propionylpiperazin-1-yl)quinazolin-7-yl)-3-fluorophenoxy)ethoxy)methyl)benzyl)oxy)ethyl)piperidin-4-yl)-6-fluoro-1-oxoisoindolin-2-yl)piperidine-2,6-dione]	< 10%	B′
B′	C=C(Cl)C(=O)N1CCN(c2ncnc3c(F)c(-c4c(F)cccc4OCCC4CCC(CCN5CCC(c6cc(F)cc7c6CN(C6CCC(=O)NC6=O)C7=O)CC5)CC4)c(Cl)cc23)CC1 (stereo not drawn) [Compound 110, 3-(4-(1-(2-(4-(2-(2-(6-Chloro-4-(4-(2-chloroacryloyl)piperazin-1-yl)-8-fluoroquinazolin-7-yl)-3-fluorophenoxy)ethyl)cyclohexyl)ethyl)piperidin-4-yl)-6-fluoro-1-oxoisoindolin-2-yl)piperidine-2,6-dione]	< 10%	A′
B′	C=C(Cl)C(=O)N1CCN(c2ncnc3c(F)c(-c4c(F)cccc4OCCc4ccc(CCN5CCC(c6cc(F)cc7c6CN(C6CCC(=O)NC6=O)C7=O)CC5)cc4)c(Cl)cc23)CC1 (stereo not drawn) [Compound 111, 3-(4-(1-(4-(2-(2-(6-Chloro-4-(4-(2-chloroacryloyl)piperazin-1-yl)-8-fluoroquinazolin-7-yl)-3-fluorophenoxy)ethyl)phenethyl)piperidin-4-yl)-6-fluoro-1-oxoisoindolin-2-yl)piperidine-2,6-dione]	< 10%	A′
B′	C=C(Cl)C(=O)N1CCN(c2ncnc3c(F)c(-c4c(F)cccc4OCCCCCCCN4CCC(c5cc(F)cc6c5CN(C5CCC(=O)NC5=O)C6=O)C4)c(Cl)cc23)CC1 (stereo not drawn) [Compound 112, 3-(4-(1-(7-(2-(6-Chloro-4-(4-(2-chloroacryloyl)piperazin-1-yl)-8-fluoroquinazolin-7-yl)-3-fluorophenoxy)heptyl)pyrrolidin-3-yl)-6-fluoro-1-oxoisoindolin-2-yl)piperidine-2,6-dione]	< 10%	A′
B′	C=C(Cl)C(=O)N1CCN(c2ncnc3c(F)c(-c4c(F)cccc4OCCCCCCCCCN4CCC(c5cc(F)cc6c5CN(C5CCC(=O)NC5=O)C6=O)CC4)c(Cl)cc23)CC1 (stereo not drawn) [Compound 113, 3-(4-(1-(9-(2-(6-Chloro-4-(4-(2-chloroacryloyl)piperazin-1-yl)-8-fluoroquinazolin-7-yl)-3-fluorophenoxy)nonyl)piperidin-4-yl)-6-fluoro-1-oxoisoindolin-2-yl)piperidine-2,6-dione]	< 10%	B′
B′	C=C(Cl)C(=O)N1CCN(c2ncnc3c(F)c(-c4c(F)cccc4OCCCCCCCCCCCN4CCC(c5cc(F)cc6c5CN(C5CCC(=O)NC5=O)C6=O)CC4)c(Cl)cc23)CC1 (stereo not drawn) [Compound 114, 3-(4-(1-(11-(2-(6-Chloro-4-(4-(2-chloroacryloyl)piperazin-1-yl)-8-fluoroquinazolin-7-yl)-3-fluorophenoxy)undecyl)piperidin-4-yl)-6-fluoro-1-oxoisoindolin-2-yl)piperidine-2,6-dione]	< 10%	B′
B′	C=C(Cl)C(=O)N1CCN(c2nc(OCCN(C)C)nc3c(F)c(-c4c(F)cccc4OCCCCCCCN4CCC(c5cc(F)cc6c5CN(C5CCC(=O)NC5=O)C6=O)CC4)c(Cl)cc23)CC1 (stereo not drawn) [Compound 115, 3-(4-(1-(7-(2-(6-Chloro-4-(4-(2-chloroacryloyl)piperazin-1-yl)-2-(2-(dimethylamino)-ethoxy)-8-fluoroquinazolin-7-yl)-3-fluorophenoxy)heptyl)piperidin-4-yl)-6-fluoro-1-oxoisoindolin-2-yl)piperidine-2,6-dione]	< 10%	A′
